# Assay results as given in ChEMBL document CHEMBL4483862, “Open-source discovery of chemical leads for next-generation chemoprotective antimalarials” (2018).
# Tested on: Plasmodium berghei
# Experiment: Luciferase/luciferin-expressing antifolate-resistant parasites were used to infect a culture of HepG2 cells that were pre-incubated with compounds. Infected hepatocytes emit light due to the luciferase reaction. Assay results are presented as the percent inhibition of light emission compared to control. […]
# Format: functional
# Details: sporozoite; for IC90: read-out: LUCIFERASE INFECTION ASSAY - IC90
smiles,measurement,setting,value
Oc1cc(C(F)(F)F)nc2c(C(F)(F)F)cccc12,IC50,"FFLUC_HILL_SLOPE 0.264, FFLUC_R_SQUARED 0.18, PBLUC_HILL_SLOPE 9.49, PBLUC_R_SQUARED 0.416, read-out: LUCIFERASE INFECTION ASSAY - IC50",4.09 µM
same,IC90,,5.16 µM
Cc1noc(-c2ccc(Cl)cc2)c1C(=O)ON=C(N)c1ccc(C(C)(C)C)cc1,IC50,"FFLUC_HILL_SLOPE 0.0669, FFLUC_R_SQUARED 0.264, read-out: LUCIFERASE INFECTION ASSAY - IC50",> 8.01 µM
same,IC90,,> 8.01 µM
COc1ccc(NC(=O)C2Cc3c(-c4cccc(C(C)=O)c4)ccnc3O2)cc1OC (stereo not given),IC50,"FFLUC_HILL_SLOPE 0.226, FFLUC_R_SQUARED 0.216, HEPG2TOX_HILL_SLOPE 3.1, HEPG2TOX_R_SQUARED 0.695, PBLUC_HILL_SLOPE 3.79, PBLUC_R_SQUARED 0.351, read-out: LUCIFERASE INFECTION ASSAY - IC50",4.93 µM
same,IC90,,> 7.89 µM
CC1(C(=O)NCc2cccs2)Cc2c(-c3ccccc3)ccnc2O1 (stereo not given),IC50,"FFLUC_HILL_SLOPE 0.144, FFLUC_R_SQUARED 0.18, HEPG2TOX_HILL_SLOPE 3.88, HEPG2TOX_R_SQUARED 0.701, PBLUC_HILL_SLOPE 8.35, PBLUC_R_SQUARED 0.0479, read-out: LUCIFERASE INFECTION ASSAY - IC50",7.82 µM
same,IC90,,> 9.42 µM
N#CC(=C1NS(=O)(=O)c2ccccc21)c1nc(C23CC4CC(CC(C4)C2)C3)cs1,IC50,"FFLUC_HILL_SLOPE 0.216, FFLUC_R_SQUARED 0.688, PBLUC_HILL_SLOPE 0.978, PBLUC_R_SQUARED 0.875, read-out: LUCIFERASE INFECTION ASSAY - IC50",0.208 µM
same,IC90,,1.97 µM
O=C(N/N=C/c1c(-c2ccccc2)nc2sc3c(n12)CCCC3)c1ccc(Br)cc1,IC50,"FFLUC_HILL_SLOPE 0.19, FFLUC_R_SQUARED 0.758, PBLUC_HILL_SLOPE 1.28, PBLUC_R_SQUARED 0.573, read-out: LUCIFERASE INFECTION ASSAY - IC50",1.51 µM
same,IC90,,8.36 µM
CCCCNC(=O)c1c(NC(=O)c2ccc(F)c(F)c2)nc2ccc(C)cn12,IC50,"FFLUC_HILL_SLOPE 0.0723, FFLUC_R_SQUARED 0.0194, HEPG2TOX_HILL_SLOPE 0.765, HEPG2TOX_R_SQUARED 0.862, PBLUC_HILL_SLOPE 1.87, PBLUC_R_SQUARED 0.784, read-out: LUCIFERASE INFECTION ASSAY - IC50",1.09 µM
same,IC90,,3.54 µM
OC(c1cc(F)c(F)c(F)c1)c1nnc(Nc2ccc(F)c(Cl)c2)s1 (stereo not given),IC50,"FFLUC_HILL_SLOPE 0.27, FFLUC_R_SQUARED 0.307, PBLUC_HILL_SLOPE 3.7, PBLUC_R_SQUARED 0.113, read-out: LUCIFERASE INFECTION ASSAY - IC50",8.96 µM
same,IC90,,> 10 µM
CCOC(=O)c1sc(-c2ccccc2)cc1NC(=O)COC(=O)c1c2c(nc3ccccc13)CCC(C)C2 (stereo not given),IC50,"FFLUC_HILL_SLOPE 0.238, FFLUC_R_SQUARED 0.508, read-out: LUCIFERASE INFECTION ASSAY - IC50",> 10 µM
same,IC90,,> 10 µM
CCc1cccc2c(C(=O)COC(=O)c3ccc(S(C)(=O)=O)c([N+](=O)[O-])c3)c[nH]c12,IC50,"FFLUC_HILL_SLOPE 0.275, FFLUC_R_SQUARED 0.382, HEPG2TOX_HILL_SLOPE 0.775, HEPG2TOX_R_SQUARED 0.837, PBLUC_HILL_SLOPE 46.1, PBLUC_R_SQUARED 0.262, read-out: LUCIFERASE INFECTION ASSAY - IC50",6.27 µM
same,IC90,,6.57 µM
CC(C)NC(=O)c1c(NC(=O)c2ccc(Cl)cc2Cl)nc2ccccn12,IC50,"FFLUC_HILL_SLOPE 0.259, FFLUC_R_SQUARED 0.0893, HEPG2TOX_HILL_SLOPE 15, HEPG2TOX_R_SQUARED 0.814, PBLUC_HILL_SLOPE 11.2, PBLUC_R_SQUARED 0.466, read-out: LUCIFERASE INFECTION ASSAY - IC50",3.1 µM
same,IC90,,3.78 µM
CCC(C)NC(=O)c1c(NC(=O)c2cccc(F)c2)nc2ccc(C)cn12 (stereo not given),IC50,"FFLUC_HILL_SLOPE 0.281, FFLUC_R_SQUARED 0.0242, HEPG2TOX_HILL_SLOPE 2.05, HEPG2TOX_R_SQUARED 0.911, PBLUC_HILL_SLOPE 3.14, PBLUC_R_SQUARED 0.667, read-out: LUCIFERASE INFECTION ASSAY - IC50",1.45 µM
same,IC90,,2.91 µM
Cc1cc(-c2cn3c(-c4cccc(O)c4)cnc3cn2)cc(C)c1O,IC50,"FFLUC_HILL_SLOPE 0.138, FFLUC_R_SQUARED 0.042, HEPG2TOX_HILL_SLOPE 1.55, HEPG2TOX_R_SQUARED 0.983, PBLUC_HILL_SLOPE 3.3, PBLUC_R_SQUARED 0.553, read-out: LUCIFERASE INFECTION ASSAY - IC50",6.94 µM
same,IC90,,> 9.96 µM
O=[N+]([O-])c1cc(C(F)(F)F)ccc1Sc1nnc(-c2ccc(Cl)cc2)[nH]1,IC50,"FFLUC_HILL_SLOPE 0.154, FFLUC_R_SQUARED 0.106, read-out: LUCIFERASE INFECTION ASSAY - IC50",> 8.23 µM
same,IC90,,> 8.23 µM
Clc1ccc(-n2nnnc2Sc2ncnc3sc4c(c23)CCC4)cc1,IC50,"FFLUC_HILL_SLOPE 0.273, FFLUC_R_SQUARED 0.315, read-out: LUCIFERASE INFECTION ASSAY - IC50",> 10 µM
same,IC90,,> 10 µM
N#CC1(c2ccccc2)C/C(=C\c2cccs2)C(=O)/C(=C/c2cccs2)C1 (stereo not given),IC50,"FFLUC_HILL_SLOPE 0.232, FFLUC_R_SQUARED 0.325, read-out: LUCIFERASE INFECTION ASSAY - IC50",> 10 µM
same,IC90,,> 10 µM
COc1ccc(CC2(Cc3ccc(OC)c(F)c3)C(=O)N(c3ccccc3C)C(=O)c3ccccc32)cc1F,IC50,"FFLUC_HILL_SLOPE 0.212, FFLUC_R_SQUARED 0.0258, read-out: LUCIFERASE INFECTION ASSAY - IC50",> 10 µM
same,IC90,,> 10 µM
CC(C)N1C(=O)/C(=N\NC(=S)Nc2cccnc2)c2ccccc21,IC50,"FFLUC_HILL_SLOPE 0.241, FFLUC_R_SQUARED 0.177, HEPG2TOX_HILL_SLOPE 1.23, HEPG2TOX_R_SQUARED 0.88, PBLUC_HILL_SLOPE 2.27, PBLUC_R_SQUARED 0.476, read-out: LUCIFERASE INFECTION ASSAY - IC50",1.9 µM
same,IC90,,5.01 µM
Cc1ccc2nc(NC(=O)c3ccccc3)c(C(=O)NC3CCCCC3)n2c1,IC50,"FFLUC_HILL_SLOPE 0.276, FFLUC_R_SQUARED 0.15, HEPG2TOX_HILL_SLOPE 1.74, HEPG2TOX_R_SQUARED 0.886, PBLUC_HILL_SLOPE 12, PBLUC_R_SQUARED 0.694, read-out: LUCIFERASE INFECTION ASSAY - IC50",2.66 µM
same,IC90,,3.2 µM
CCOC(=O)c1cc(-c2ccccc2)sc1NC(=O)CSc1nnc(-c2ccc(C(C)(C)C)cc2)n1-c1ccccc1,IC50,"FFLUC_HILL_SLOPE 0.186, FFLUC_R_SQUARED 0.0278, read-out: LUCIFERASE INFECTION ASSAY - IC50",> 10 µM
same,IC90,,> 10 µM
Cc1cccc(-c2cc(NC=O)c3ncc(-c4ccc(S(C)(=O)=O)cc4)n3c2)c1,IC50,"FFLUC_HILL_SLOPE 0.295, FFLUC_R_SQUARED 0.0341, HEPG2TOX_HILL_SLOPE 11.3, HEPG2TOX_R_SQUARED 0.289, read-out: LUCIFERASE INFECTION ASSAY - IC50",> 8.14 µM
same,IC90,,> 8.14 µM
COc1ccc(CNc2nc(C)nc3scc(-c4ccccc4)c23)cc1,IC50,"FFLUC_HILL_SLOPE 0.195, FFLUC_R_SQUARED 0.119, HEPG2TOX_HILL_SLOPE 2.5, HEPG2TOX_R_SQUARED 0.976, PBLUC_HILL_SLOPE 4.55, PBLUC_R_SQUARED 0.142, read-out: LUCIFERASE INFECTION ASSAY - IC50",4.24 µM
same,IC90,,6.87 µM
NCc1cccc(-c2cc(-c3cc(C(F)(F)F)cc(C(F)(F)F)c3)cnc2N)c1,IC50,"FFLUC_HILL_SLOPE 0.255, FFLUC_R_SQUARED 0.011, PBLUC_HILL_SLOPE 2.95, PBLUC_R_SQUARED 0.223, read-out: LUCIFERASE INFECTION ASSAY - IC50",7.98 µM
same,IC90,,> 8.02 µM
CC(C)(C)C(=O)CC(=O)Nc1ccc(C(F)(F)F)cc1,IC50,"FFLUC_HILL_SLOPE 0.143, FFLUC_R_SQUARED 0.0864, PBLUC_HILL_SLOPE 0.817, PBLUC_R_SQUARED 0.0775, read-out: LUCIFERASE INFECTION ASSAY - IC50",> 11.5 µM
same,IC90,,> 11.5 µM
Cc1cc(C)cc(C(=O)N(C)CC(=O)N2CCCC2)c1,IC50,"FFLUC_HILL_SLOPE 0.201, FFLUC_R_SQUARED 0.0577, read-out: LUCIFERASE INFECTION ASSAY - IC50",> 10 µM
same,IC90,,> 10 µM
COc1ccc(CNC(=O)N(C)CCOc2ccc(OC)cc2)cc1,IC50,"FFLUC_HILL_SLOPE 0.273, FFLUC_R_SQUARED 0.253, HEPG2TOX_HILL_SLOPE 16.5, HEPG2TOX_R_SQUARED 0.443, PBLUC_HILL_SLOPE 9.82, PBLUC_R_SQUARED 0.776, read-out: LUCIFERASE INFECTION ASSAY - IC50",8.44 µM
same,IC90,,> 10 µM
OCc1cccc(-c2cnc3cnc(-c4ccc(CNc5ccccc5)cc4)cn23)c1,IC50,"FFLUC_HILL_SLOPE 0.18, FFLUC_R_SQUARED 0.146, PBLUC_HILL_SLOPE 3.27, PBLUC_R_SQUARED 0.516, read-out: LUCIFERASE INFECTION ASSAY - IC50",6.25 µM
same,IC90,,> 8.12 µM
COc1ccccc1NS(=O)(=O)c1ccc(NNC(=S)Nc2cc(C)cc(C)c2)c([N+](=O)[O-])c1,IC50,"FFLUC_HILL_SLOPE 0.289, FFLUC_R_SQUARED 0.0194, HEPG2TOX_HILL_SLOPE 0.191, HEPG2TOX_R_SQUARED 0.347, PBLUC_HILL_SLOPE 3.05, PBLUC_R_SQUARED 0.49, read-out: LUCIFERASE INFECTION ASSAY - IC50",5.73 µM
same,IC90,,> 10 µM
N#C/C(=C\c1sccc1Oc1ccccc1)S(=O)(=O)c1ccc(C(F)(F)F)cn1,IC50,"FFLUC_HILL_SLOPE 0.259, FFLUC_R_SQUARED 0.0664, read-out: LUCIFERASE INFECTION ASSAY - IC50",> 7.56 µM
same,IC90,,> 7.56 µM
COc1ccc(N(CCC(N)=O)C(=O)CSc2nc3ccccc3n2-c2ccc(OC)cc2)cc1,IC50,"FFLUC_HILL_SLOPE 0.23, FFLUC_R_SQUARED 0.0771, read-out: LUCIFERASE INFECTION ASSAY - IC50",> 10 µM
same,IC90,,> 10 µM
